Test results from patent US5015628A, “Anticariogenic phosphopeptides” (The University of Melbourne, priority 1986, dated 1991).
Where a SMILES comes first, the peptide text is derived from it. [ ]: non-standard residue; d: D form. pS = N[C@@H](COP(=O)(O)O)C(=O)O

Experiment: Intra-Oral Caries Test (Test 2)
Assay type: in vivo
Conditions: plaque exposed twice a day to the peptide T1 solution
Description: The anticariogenicity of phosphopeptide T1 was determined using a modification of the intra-oral caries test of Koulourides and Ostrom (Caries Res. 10:442-482, 1976). Enamel slabs were inset in a removable intra-oral appliance to simulate an approximal area. This was done on both sides of the removable appliance (left and right). The appliance was worn to allow plaque accumulation in the simulated approximal areas. Eight times a day the appliance was removed and placed in a solution at 37° C. The solution was 2% w/v sucrose, 2% w/v glucose, 140 mM KCl, 20 mM NaCl at pH 7.0. Twice a day the right side enamel slabs received exposure to a solution containing 1.8% w/v calcium phosphate T1 in 140 mM KCl, 20 mM NaCl at pH 7.0, while the left side received only the salt solution. At the completion of the experiment the enamel slabs were removed, sectioned and subjected to microradiography and microhardness testing. […] The results were confirmed by microhardness analysis. Plaque was also taken from both sides of the appliance and analysed for calcium phosphate, serine phosphate and peptide T1 using a competitive, quantitative, enzyme-linked immunosorbent assay (ELISA) utilising monoclonal antipeptide T1 antibodies.

SMILES: CC[C@H](C)[C@H](NC(=O)[C@H](COP(=O)(O)O)NC(=O)[C@H](CCC(=O)O)NC(=O)[C@H](C)NC(=O)[C@H](CCC(=O)O)NC(=O)[C@H](CCSC)NC(=O)[C@@H](N)CCC(=O)O)C(=O)N[C@@H](COP(=O)(O)O)C(=O)N[C@@H](COP(=O)(O)O)C(=O)N[C@@H](COP(=O)(O)O)C(=O)N[C@@H](CCC(=O)O)C(=O)N[C@@H](CCC(=O)O)C(=O)N[C@H](C(=O)N[C@H](C(=O)N1CCC[C@H]1C(=O)N[C@@H](CC(N)=O)C(=O)N[C@@H](COP(=O)(O)O)C(=O)N[C@H](C(=O)N[C@@H](CCC(=O)O)C(=O)N[C@@H](CCC(N)=O)C(=O)N[C@@H](CCCCN)C(=O)O)C(C)C)C(C)C)[C@@H](C)CC [T1, Glu-Met-Glu-Ala-Glu-Pse-Ile-Pse-Pse-Pse-Glu-Glu-Ile-Val-Pro-Asn-Pse-Val-Glu-Gln-Lys] (H-EMEAE[pS]I[pS][pS][pS]EEIVPN[pS]VEQK-OH)
- level of peptide in plaque (ELISA): at least 0.4 % w/wet wt of plaque
